Experimental data reported in patent US9533991B2, “Inhibitors of Bruton's tyrosine kinase” (PHARMACYCLICS LLC, priority 2014, dated 2017).

Experiments:
Format in all cases: biochemical
[1] = target: T1, Btk (Homo sapiens, UniProt Q06187); experiment: Inhibition of a panel of kinases: Btk; details: kinase panel, Table 2
Procedure: (§1) The degree of inhibition of a panel of kinases is determined using assays similar to the kinase assay described in Example 53.

[2] = target: EGFR (Homo sapiens, UniProt P00533); experiment: Inhibition of a panel of kinases: EGFR; details: kinase panel, Table 2
Procedure: as §1

[3] = target: LCK (Homo sapiens, UniProt P06239); experiment: Inhibition of a panel of kinases: LCK; details: kinase panel, Table 2
Procedure: as §1

[4] = target: T1, Btk; experiment: Btk in vitro inhibitory activity (Method A, B or C); design: purified from insect cells as a full-length construct containing a N-terminal 6×-His tag; His6 (N); made in house; host or cells: insect cells (baculovirus, Sf21); details: one of the methods of Example 53a, 53b, 53c
Procedure: Btk kinase activity is determined using a time-resolved fluorescence resonance energy transfer (TR-FRET) methodology. Measurements are performed in a reaction volume of 50 μL using 96-well assay plates. Kinase enzyme, inhibitor, ATP (at the Km for the kinase), and 1 μM peptide substrate (Biotin-AVLESEEELYSSARQ-NH2 (SEQ ID NO: 1)) are incubated in a reaction buffer composed of 20 mM Tris, 50 mM NaCl, MgCl2 (5-25 mM depending on the kinase), MnCl2 (0-10 mM), 1 mM DTT, 0.1 mM EDTA, 0.01% bovine serum albumin, 0.005% Tween-20, and 10% DMSO at pH 7.4 for one hour. The reaction is quenched by the addition of 1.2 equivalents of EDTA (relative to divalent cation) in 25 μL of 1× Lance buffer (Perkin-Elmer). Streptavidin-APC (Perkin-Elmer) and Eu-labeled p-Tyr100 antibody (Perkin-Elmer) in 1× Lance buffer are added in a 25 μL volume to give final concentrations of 100 nM and 2.5 nM, respectively, and the mixture is allowed to incubate for one hour. The TR-FRET signal is measured on a multimode plate reader with an excitation wavelength (λEx) of 330 nm and detection wavelengths (λEm) of 615 and 665 nm. Activity is determined by the ratio of the fluorescence at 665 nm to that at 615 nm. For each compound, enzyme activity is measured at various concentrations of compound. Negative control reactions are performed in the absence of inhibitor in replicates of six, and two no-enzyme controls are used to determine baseline fluorescence levels. Inhibition constants, Ki(app), ware obtained using the program BatchKi (Kuzmic et al. (2000), Anal. Biochem. 286:45-50). IC50s are obtained according to the equation: IC50={Ki(app)/1+[ATP]/Km^ATP)}+[E]total/2;
For all kinases, [ATP]=Km^ATP, [Btk]total=0.5 nM and [Lck]total=6 nM.
Kinase activity is measured in vitro using electrophoretic mobility shift assay. The kinase reactions are assembled in a total volume of 25 μL in 384 well plates. The reactions comprise: BTK enzyme (1 nM, N-terminal His6-tagged, recombinant, full-length, human BTK purified from baculovirus Sf21 insect cell system), inhibitor, ATP (16 μM, the apparent Km for the kinase), fluorescently labeled peptide substrate (1 μM, FAM-GEEPLYWSFPAKKK-NH2 (SEQ ID NO: 2)) in a reaction buffer composed of 100 mM HEPES, pH7.5, 5 mM MgCl2 1 mM DTT, 0.1% bovine serum albumin, 0.01% Triton X-100, and 1% DMSO. The reaction is incubated for one hour and is quenched by the addition of 45 μL of termination buffer (100 mM HEPES, pH7.5, 0.01% Triton X-100, 30 mM EDTA). The terminated reactions are analyzed using 12 channel LabChip® 3000 microfluidic detection instrument (Caliper Life Sciences). The enzymatic phosphorylation of the peptide results in a change in net charge, enabling electrophoretic separation of product from substrate peptide. As substrate and product peptides are separated, two peaks of fluorescence are observed. Change in the relative fluorescence intensity of the substrate and product peaks is the parameter measured, reflecting enzyme activity. In the presence of an inhibitor, the ratio between product and substrate is altered: the signal of the product decreases, while the signal of the substrate increases.
Activity in each sample is determined as the product to sum ratio (PSR):P/(S+P), where P is the peak height of the product peptide and S is the peak height of the substrate peptide. For each compound, enzyme activity is measured at various concentrations (12 concentrations of compound spaced by 3× dilution intervals). Negative control samples (0%−inhibition in the absence of inhibitor) and positive control samples (100%−inhibition, in the presence of 20 mM EDTA) are assembled in replicates of four and are used to calculate %−inhibition values for each inhibitor at each concentration. Percent inhibition (Pinh) is determined using following equation: […]

T1 sequence (Q06187 whole entry): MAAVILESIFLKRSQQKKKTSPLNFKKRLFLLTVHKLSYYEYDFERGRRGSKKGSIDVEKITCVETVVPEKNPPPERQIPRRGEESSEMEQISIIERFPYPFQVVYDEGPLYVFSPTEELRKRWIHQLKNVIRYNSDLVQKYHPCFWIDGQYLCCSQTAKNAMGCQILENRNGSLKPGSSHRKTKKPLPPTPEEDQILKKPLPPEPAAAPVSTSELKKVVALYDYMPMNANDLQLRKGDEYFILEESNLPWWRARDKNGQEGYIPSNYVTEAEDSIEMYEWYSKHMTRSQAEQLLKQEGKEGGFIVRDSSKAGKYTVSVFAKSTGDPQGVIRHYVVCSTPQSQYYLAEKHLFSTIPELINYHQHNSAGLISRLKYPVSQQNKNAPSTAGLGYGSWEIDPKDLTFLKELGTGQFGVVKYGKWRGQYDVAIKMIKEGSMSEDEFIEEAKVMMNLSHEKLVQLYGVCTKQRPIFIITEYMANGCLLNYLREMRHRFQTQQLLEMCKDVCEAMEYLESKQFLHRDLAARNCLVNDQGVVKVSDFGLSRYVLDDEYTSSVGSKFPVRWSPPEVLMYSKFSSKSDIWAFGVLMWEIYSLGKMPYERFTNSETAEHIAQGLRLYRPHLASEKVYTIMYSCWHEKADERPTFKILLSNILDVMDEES
Sequence of EGFR (P00533 25-1210, species assumed): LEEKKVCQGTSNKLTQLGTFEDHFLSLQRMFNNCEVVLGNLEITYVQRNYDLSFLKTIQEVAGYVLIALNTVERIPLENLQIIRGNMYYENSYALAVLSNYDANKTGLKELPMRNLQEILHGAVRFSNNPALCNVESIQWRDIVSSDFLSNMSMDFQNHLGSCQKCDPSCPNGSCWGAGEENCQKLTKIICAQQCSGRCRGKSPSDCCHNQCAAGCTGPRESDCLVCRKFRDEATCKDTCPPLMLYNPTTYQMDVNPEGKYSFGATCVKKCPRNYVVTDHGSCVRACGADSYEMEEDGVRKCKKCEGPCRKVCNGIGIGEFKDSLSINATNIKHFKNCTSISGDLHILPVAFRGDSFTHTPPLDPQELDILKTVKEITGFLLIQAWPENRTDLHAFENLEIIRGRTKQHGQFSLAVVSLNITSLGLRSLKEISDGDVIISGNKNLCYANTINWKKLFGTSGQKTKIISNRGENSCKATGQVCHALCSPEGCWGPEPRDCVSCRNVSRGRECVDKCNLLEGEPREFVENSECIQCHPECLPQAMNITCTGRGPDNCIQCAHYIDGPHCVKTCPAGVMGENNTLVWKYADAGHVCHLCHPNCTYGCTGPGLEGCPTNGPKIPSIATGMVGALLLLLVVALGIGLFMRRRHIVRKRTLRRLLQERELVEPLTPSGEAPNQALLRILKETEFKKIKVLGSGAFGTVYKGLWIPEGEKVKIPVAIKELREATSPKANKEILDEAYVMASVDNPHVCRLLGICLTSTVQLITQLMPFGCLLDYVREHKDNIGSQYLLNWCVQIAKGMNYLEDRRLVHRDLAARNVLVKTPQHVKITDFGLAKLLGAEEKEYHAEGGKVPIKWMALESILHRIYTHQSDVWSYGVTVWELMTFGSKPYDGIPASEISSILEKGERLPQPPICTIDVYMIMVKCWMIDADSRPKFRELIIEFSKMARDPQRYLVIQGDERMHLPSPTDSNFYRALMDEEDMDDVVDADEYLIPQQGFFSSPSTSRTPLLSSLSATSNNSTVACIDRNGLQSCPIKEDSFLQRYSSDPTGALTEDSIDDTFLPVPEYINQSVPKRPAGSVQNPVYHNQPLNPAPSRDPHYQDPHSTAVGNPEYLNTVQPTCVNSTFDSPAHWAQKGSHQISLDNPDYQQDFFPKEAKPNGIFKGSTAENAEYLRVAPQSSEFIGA
Sequence of LCK (P06239 whole entry, species assumed): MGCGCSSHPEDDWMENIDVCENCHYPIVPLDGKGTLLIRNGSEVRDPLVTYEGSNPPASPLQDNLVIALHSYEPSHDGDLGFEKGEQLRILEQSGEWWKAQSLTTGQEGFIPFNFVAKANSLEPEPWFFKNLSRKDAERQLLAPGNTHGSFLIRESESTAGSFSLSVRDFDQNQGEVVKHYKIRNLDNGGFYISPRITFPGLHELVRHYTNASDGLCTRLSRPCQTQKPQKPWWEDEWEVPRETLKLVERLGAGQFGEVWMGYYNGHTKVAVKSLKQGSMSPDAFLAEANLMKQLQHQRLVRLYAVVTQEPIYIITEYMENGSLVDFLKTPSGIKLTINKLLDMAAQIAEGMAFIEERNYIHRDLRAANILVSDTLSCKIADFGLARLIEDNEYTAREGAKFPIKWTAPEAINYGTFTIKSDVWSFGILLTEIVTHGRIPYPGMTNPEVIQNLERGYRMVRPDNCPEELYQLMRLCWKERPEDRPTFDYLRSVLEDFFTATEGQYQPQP

IC50 [1] [nM]	IC50 [2] [nM]	IC50 [3] [nM]	IC50 [4] [nM]	Compound
≤ 10	≤ 10	100 to 1000	≤ 10	CC#CC(=O)N1CC[C@@H](n2nc(-c3ccc(C(=O)Nc4cc(CCC)ccn4)cc3)c3c(N)ncnc32)C1 [Compound ID 9, (R)-4-(4-amino-1-(1-but-2-ynoylpyrrolidin-3-yl)-1H-pyrazolo[3,4-d]pyrimidin-3-yl)-N-(4-propylpyridin-2-yl)benzamide]
≤ 10	≤ 10	100 to 1000	≤ 10	CC#CC(=O)N1CCC[C@@H](n2nc(-c3ccc(C(=O)Nc4ccccn4)cc3)c3c(N)ncnc32)C1 [Compound ID 10, (R)-4-(4-amino-1-(1-but-2-ynoylpiperidin-3-yl)-1H-pyrazolo[3,4-d]pyrimidin-3-yl)-N-(pyridin-2-yl)benzamide]
≤ 10	10 to 100	10 to 100	≤ 10	CC#CC(=O)N1CCC[C@@H](n2nc(-c3ccc(C(=O)Nc4cc(C)ccn4)cc3)c3c(N)ncnc32)C1 [Compound ID 11, (R)-4-(4-amino-1-(1-but-2-ynoylpiperidin-3-yl)-1H-pyrazolo[3,4-d]pyrimidin-3-yl)-N-(4-methylpyridin-2-yl)benzamide]
≤ 10	100 to 1000	10 to 100	≤ 10	CC#CC(=O)N1CCC[C@@H](n2nc(-c3ccc(C(=O)Nc4cc(C(F)(F)F)ccn4)cc3)c3c(N)ncnc32)C1 [Compound ID 12, (R)-4-(4-amino-1-(1-but-2-ynoylpiperidin-3-yl)-1H-pyrazolo[3,4-d]pyrimidin-3-yl)-N-(4-(trifluoromethyl)pyridin-2-yl)benzamide]
≤ 10	100 to 1000	≤ 10	≤ 10	CC#CC(=O)N1CCC[C@@H](n2nc(-c3ccc(C(=O)Nc4cc(CCC)ccn4)cc3)c3c(N)ncnc32)C1 [Compound ID 13, (R)-4-(4-amino-1-(1-but-2-ynoylpiperidin-3-yl)-1H-pyrazolo[3,4-d]pyrimidin-3-yl)-N-(4-propylpyridin-2-yl)benzamide]
≤ 10	100 to 1000	10 to 100	≤ 10	CC#CC(=O)N1CCC[C@@H](n2nc(-c3ccc(C(=O)Nc4cc(C#N)ccn4)cc3)c3c(N)ncnc32)C1 [Compound ID 14, (R)-4-(4-amino-1-(1-but-2-ynoylpiperidin-3-yl)-1H-pyrazolo[3,4-d]pyrimidin-3-yl)-N-(4-cyanopyridin-2-yl)benzamide]
≤ 10	≤ 10	100 to 1000	≤ 10	CC#CC(=O)N1CC[C@@H](n2nc(-c3ccc(C(=O)Nc4nccs4)cc3)c3c(N)ncnc32)C1 [Compound ID 15, (R)-4-(4-amino-1-(1-but-2-ynoylpyrrolidin-3-yl)-1H-pyrazolo[3,4-d]pyrimidin-3-yl)-N-(thiazol-2-yl)benzamide]
≤ 10	≤ 10	10 to 100	–	COCC#CC(=O)N1CC[C@@H](n2nc(-c3ccc(C(=O)Nc4ccccn4)cc3)c3c(N)ncnc32)C1 [Compound ID 18, (R)-4-(4-amino-1-(1-(4-methoxybut-2-ynoyl)pyrrolidin-3-yl)-1H-pyrazolo[3,4-d]pyrimidin-3-yl)-N-(pyridin-2-yl)benzamide]
≤ 10	10 to 100	100 to 1000	–	Nc1ncnc2c1c(-c1ccc(C(=O)Nc3ccccn3)cc1)nn2[C@@H]1CCN(C(=O)C#CCO)C1 [Compound ID 19, (R)-4-(4-amino-1-(1-(4-hydroxybut-2-ynoyl)pyrrolidin-3-yl)-1H-pyrazolo[3,4-d]pyrimidin-3-yl)-N-(pyridin-2-yl)benzamide]
–	–	–	≤ 10	C=CC(=O)N1CC[C@@H](n2nc(-c3ccc(C(=O)Nc4cc(C#N)ccn4)cc3)c3c(N)ncnc32)C1 [Compound ID 24, (R)-4-(1-(1-acryloylpyrrolidin-3-yl)-4-amino-1H-pyrazolo[3,4-d]pyrimidin-3-yl)-N-(4-cyanopyridin-2-yl)benzamide]
–	–	–	≤ 10	C=CC(=O)N1CCC[C@@H](n2nc(-c3ccc(C(=O)Nc4ccccn4)cc3)c3c(N)ncnc32)C1 [Compound ID 25, (R)-4-(1-(1-acryloylpiperidin-3-yl)-4-amino-1H-pyrazolo[3,4-d]pyrimidin-3-yl)-N-(pyridin-2-yl)benzamide]
–	–	–	≤ 10	C=CC(=O)N1CCC[C@@H](n2nc(-c3ccc(C(=O)Nc4cc(C(C)C)ccn4)cc3)c3c(N)ncnc32)C1 [Compound ID 28, (R)-4-(1-(1-acryloylpiperidin-3-yl)-4-amino-1H-pyrazolo[3,4-d]pyrimidin-3-yl)-N-(4-isopropylpyridin-2-yl)benzamide]
–	–	–	≤ 10	C=CC(=O)N1CCC[C@@H](n2nc(-c3ccc(C(=O)Nc4cc(C#N)ccn4)cc3)c3c(N)ncnc32)C1 [Compound ID 29, (R)-4-(1-(1-acryloylpiperidin-3-yl)-4-amino-1H-pyrazolo[3,4-d]pyrimidin-3-yl)-N-(4-cyanopyridin-2-yl)benzamide]
–	–	–	≤ 10	C/C=C/C(=O)N1CC[C@@H](n2nc(-c3ccc(C(=O)Nc4cc(C)ccn4)cc3)c3c(N)ncnc32)C1 [Compound ID 32, (R,E)-4-(4-amino-1-(1-but-2-enoylpyrrolidin-3-yl)-1H-pyrazolo[3,4-d]pyrimidin-3-yl)-N-(4-methylpyridin-2-yl)benzamide]
–	–	–	> 10	CC(C)=CC(=O)N1CC[C@@H](n2nc(-c3ccc(C(=O)Nc4cc(C)ccn4)cc3)c3c(N)ncnc32)C1 [Compound ID 33, (R)-4-(4-amino-1-(1-(3-methylbut-2-enoyl)pyrrolidin-3-yl)-1H-pyrazolo[3,4-d]pyrimidin-3-yl)-N-(4-methylpyridin-2-yl)benzamide]
–	–	–	≤ 10	Nc1ncnc2c1c(-c1ccc(C(=O)Nc3cc(C(F)(F)F)ccn3)cc1)nn2[C@@H]1CCN(C(=O)C#CCO)C1 [Compound ID 49, (R)-4-(4-amino-1-(1-(4-hydroxybut-2-ynoyl)pyrrolidin-3-yl)-1H-pyrazolo[3,4-d]pyrimidin-3-yl)-N-(4-(trifluoromethyl)pyridin-2-yl)benzamide]
–	–	–	≤ 10	COCC#CC(=O)N1CC[C@@H](n2nc(-c3ccc(C(=O)Nc4cc(C(F)(F)F)ccn4)cc3)c3c(N)ncnc32)C1 [Compound ID 50, (R)-4-(4-amino-1-(1-(4-methoxybut-2-ynoyl)pyrrolidin-3-yl)-1H-pyrazolo[3,4-d]pyrimidin-3-yl)-N-(4-(trifluoromethyl)pyridin-2-yl)benzamide]
100 to 1000	–	–	> 10	N#CC1(C(=O)N2CC[C@@H](n3nc(-c4ccc(C(=O)Nc5ccccn5)cc4)c4c(N)ncnc43)C2)CC1 [Compound ID 52, (R)-4-(4-amino-1-(1-(1-cyanocyclopropanecarbonyl)pyrrolidin-3-yl)-1H-pyrazolo[3,4-d]pyrimidin-3-yl)-N-(pyridin-2-yl)benzamide]
